Experimental data reported in PubChem BioAssay AID328 (DTP/NCI, 2004).
Values joined by “and” are separate entries in the source; they are usually repeats but may differ in a detail not shown here. Identical values can stand only once. Inconclusive results and toxic doses are left out. How the source made its calls: active means survival T/C of 150% or more; inactive means T/C below 125% in these data.

Test system: BDF1 mice, P388 leukemia ip, median survival T/C
Assay: NCI In Vivo Anticancer Drug Screen. Data for tumor model P388 Leukemia (intraperitoneal) in B6D2F1 (BDF1) mice
Conditions: endpoint: median survival time, higher = longer survival
How it was run: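 Survival ratio, drug arm over vehicle arm, in mice with a transplanted tumour.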

[1] = dose: 50.0 mg/kg/injection, schedule: Q01DX009 (ip), vehicle: saline with Tween-80
[2] = dose: 100.0 mg/kg/injection, schedule: Q01DX009 (ip), vehicle: saline with Tween-80
[3] = dose: 200.0 mg/kg/injection, schedule: Q01DX009 (ip), vehicle: saline with Tween-80
[4] = dose: 25.0 mg/kg/injection, schedule: Q01DX009 (ip), vehicle: saline with Tween-80
[5] = dose: 100.0 mg/kg/injection, schedule: Q04DX003 (ip), vehicle: saline with Tween-80
[6] = dose: 200.0 mg/kg/injection, schedule: Q04DX003 (ip), vehicle: saline with Tween-80
[7] = dose: 400.0 mg/kg/injection, schedule: Q04DX003 (ip), vehicle: saline with Tween-80

Measured: T/C

CC1CCC2CON(C(C)(C)C)C2C1 (stereo not drawn)
inactive: [1] 100 % of control | [2] 100 % of control

FC(F)(F)c1ccc(C=Nc2ccc(Oc3ccccc3)cc2)cc1
inactive: [1] 98 % of control | [2] 100 % of control | [3] 91 % of control

Cc1ccc2c(c1)Sc1ccc3ccccc3c1N2
inactive: dose: 100.0 mg/kg/injection, schedule: Q04DX003 (ip), vehicle: saline sonified 113 % of control | dose: 200.0 mg/kg/injection, schedule: Q04DX003 (ip), vehicle: saline sonified 90 % of control | dose: 400.0 mg/kg/injection, schedule: Q04DX003 (ip), vehicle: saline sonified 100 % of control

NC(=O)NC(c1ccccc1)C(NC(N)=O)c1ccccc1 (stereo not drawn)
inactive: [1] 110 % of control | [2] 104 % of control | [3] 91 % of control

COc1ccc(OC)c(NC(=O)NC(c2ccccc2)c2ccccc2)c1
inactive: dose: 12.5 mg/kg/injection, schedule: Q01DX009 (ip), vehicle: Klucel (hydroxypropylcellulose) (HPC) 93 % of control

CCOC(=O)C(=O)CC(=O)/C=C/c1ccccc1
inactive: [2] 96 % of control | [3] 107 % of control

Cc1ccc2c(c1)=N/C(=N/c1[nH]c(O)c3ccccc13)N=2
inactive: dose: 6.25 mg/kg/injection, schedule: Q01DX009 (ip), vehicle: saline with Tween-80 108 % of control | dose: 12.5 mg/kg/injection, schedule: Q01DX009 (ip), vehicle: saline with Tween-80 99 % of control | [4] 108 % of control

CC(C)CN1CCOCC1
inactive: dose: 25.0 mg/kg/injection, schedule: Q04DX003 (ip), vehicle: saline 95 % of control | dose: 50.0 mg/kg/injection, schedule: Q04DX003 (ip), vehicle: saline 108 % of control | dose: 100.0 mg/kg/injection, schedule: Q04DX003 (ip), vehicle: saline 95 % of control

O=C1C(N2CCOCC2)=Cc2cccc3cccc1c23
inactive: dose: 50.0 mg/kg/injection, schedule: Q04DX003 (ip), vehicle: saline with Tween-80 99 % of control | [2] 101 % of control | [5] 96 % of control | [3] 90 % of control | [6] 88 % of control | [7] 99 % of control

CN(C)c1ccc(C(=O)c2ccc(N(C)C)cc2)cc1
inactive: [5] 113 % of control | dose: 118.0 mg/kg/injection, schedule: Q04DX003 (ip), vehicle: saline with Tween-80 108 % of control | dose: 177.0 mg/kg/injection, schedule: Q04DX003 (ip), vehicle: saline with Tween-80 106 % of control and 110 % of control | [6] 109 % of control | dose: 264.0 mg/kg/injection, schedule: Q04DX003 (ip), vehicle: saline with Tween-80 120 % of control | dose: 265.0 mg/kg/injection, schedule: Q04DX003 (ip), vehicle: saline with Tween-80 103 % of control | dose: 266.0 mg/kg/injection, schedule: Q04DX003 (ip), vehicle: saline with Tween-80 100 % of control | [7] 105 % of control

Cc1ccc(N=Nc2nc3nc(N)[nH]c(=O)c3[nH]2)cc1
inactive: dose: 50.0 mg/kg/injection, schedule: Q01DX005 (ip), vehicle: saline with Tween-80 100 % of control | dose: 100.0 mg/kg/injection, schedule: Q01DX005 (ip), vehicle: saline with Tween-80 105 % of control | dose: 200.0 mg/kg/injection, schedule: Q01DX005 (ip), vehicle: saline with Tween-80 87 % of control

CCC(NC(N)=O)C(CC)NC(N)=O (stereo not drawn)
inactive: [4] 106 % of control | [1] 120 % of control and 123 % of control

C[N+](C)(C)N=C1CCC2(CC1)c1ccccc1-c1ccccc12
inactive: dose: 5.15 mg/kg/injection, schedule: Q04DX003 (ip), vehicle: saline 95 % of control | dose: 6.25 mg/kg/injection, schedule: Q01DX009 (ip), vehicle: saline 95 % of control | dose: 10.31 mg/kg/injection, schedule: Q04DX003 (ip), vehicle: saline 100 % of control | dose: 12.5 mg/kg/injection, schedule: Q01DX009 (ip), vehicle: saline 91 % of control | dose: 20.62 mg/kg/injection, schedule: Q04DX003 (ip), vehicle: saline 115 % of control | dose: 25.0 mg/kg/injection, schedule: Q01DX009 (ip), vehicle: saline 100 % of control | dose: 35.0 mg/kg/injection, schedule: Q01DX009 (ip), vehicle: saline 113 % of control | dose: 41.25 mg/kg/injection, schedule: Q04DX003 (ip), vehicle: saline 104 % of control | dose: 55.0 mg/kg/injection, schedule: Q01DX009 (ip), vehicle: saline 90 % of control
